Here are results for two compounds from patent US20200383970A1, “Morphinan Derivatives with High Oral Bioavailability” (Alkermes Pharma Ireland Limited, priority 2009, published 2020).

Like-named read-outs stand apart in the source and are kept apart here.

The nature of data set [1]: Pharmacokinetic analysis following PO administration in dog. The class given is in vivo. The protocol:
Example 2: Pharmacokinetic analysis of Compound 1: The PK of Compound 1 and the reference compound Naltrexone was determined following IV (1 mg/kg) and PO (10 mg/kg or 1 mg/kg) administration. Concentrations of Compound 1 and naltrexone were determined by LC-MS/MS. The PK parameters were determined by noncompartmental analysis using WiNonlin (v5.1). FIGS. 2-4 show the PK profiles of naltrexone and Compound 1.

Data set [2] can be described thus: Pharmacokinetic analysis following PO administration in rat.
The nature of data set [3]: Pharmacokinetic analysis following PO administration in monkey.
The conditions of data set [4]: dog, oral dose 1 (mg); Reuning et at. J Pharm Sci. 1979; cited from earlier work.

Take `NC(=O)c1ccc2c(c1O)[C@]13CCN(CC4CC4)[C@H](C2)[C@]1(O)CCC(=O)C3` [Compound 1]: the AUC(0-inf) in data set [1] (dog, in vivo, po, 1 mg/kg) stood at 491 ng·h/mL; in data set [2] (rat, in vivo, po, 10 mg/kg) it was 1320 ng·h/mL; in data set [3] (monkey, in vivo, po, 10 mg/kg), 4470 ng·h/mL. The half-life in data set [1] (dog, in vivo, po, 1 mg/kg) is 3.2 h; in data set [2] (rat, in vivo, po, 10 mg/kg), 1.2 h; in data set [3] (monkey, in vivo, po, 10 mg/kg), 5.4 h. Also, the “improvement in oral bioavailability in comparison with naltrexone” value is listed as “over 50 fold” in data set [1] (dogs, oral administration); 4 fold in data set [2] (rats, oral administration); “over 4 fold” in data set [3] (monkeys, oral administration). Also, the Cmax in data set [1] (in vivo, 1 mg/kg, dog, oral dose 1 (mg)) worked out at 104 ng/mL; in data set [2] (rat, in vivo, po, 10 mg/kg), 929 ng/mL; in data set [3] (monkey, in vivo, po, 10 mg/kg), 627 ng/mL. In addition, the bioavailability in data set [1] (in vivo, 1 mg/kg, dog, oral dose 1 (mg), read-out: Bioavailability (F %)) amounted to 66%; in data set [2] (rat, in vivo, po, 10 mg/kg), 15%; in data set [3] (monkey, in vivo, po, 10 mg/kg) it was 68%.

Turning to `O=C1CC[C@@]2(O)[C@H]3Cc4ccc(O)c5c4[C@@]2(CCN3CC2CC2)[C@H]1O5` [Naltrexone, reference compound], in data set [4], the “AUC∞” value was 4.2 ng·h/mL, the “Bioavailability (F %)” value is given as 1.1% and the Cmax is 2.7 ng/mL. In data set [2] (rat, in vivo, po, 10 mg/kg), this compound had an AUC(0-inf) of 150 ng·h/mL, a Cmax of 61.6 ng/mL and a bioavailability of 3%. In data set [3] (monkey, in vivo, po, 10 mg/kg), this compound came in with an AUC(0-inf) of 54 ng·h/mL, a Cmax of 13 ng/mL and a bioavailability of 13%.
